Holding throughout (format): functional, cell-based
The subject of experiment [1] is KARPAS-299. Description: Antiproliferative activity against human KARPAS-299 cells assessed as reduction in cell growth incubated for 72 hrs by MTT assay. Conditions: KARPAS-299, 72 h. On the technique in general: Tetrazolium dyes change colour on reduction, which living cells bring about.
In experiment [2] the test system is MCF7. Description: Antiproliferative activity against human MCF7 cells assessed as reduction in cell growth incubated for 72 hrs by MTT assay. The note with it: MCF7, 72 h.
Experiment [3] relates to NCI-H2228. Description: Antiproliferative activity against human NCI-H2228 cells assessed as reduction in cell growth incubated for 72 hrs by MTT assay. Conditions: NCI-H2228, 72 h.
The test system of experiment [4] is A549. Kind of experiment: Antiproliferative activity against human A549 cells assessed as reduction in cell growth incubated for 72 hrs by MTT assay. The note with it: A549, 72 h.

Usually pIC50 stands for the IC50 on a negative log10 scale, so that one unit is a factor of ten.

pIC50: −log10 of the molar value. Some results are limits rather than exact numbers.

As for `Cc1cc(Nc2ncc(Cl)c(Nc3ccccc3S(=O)(=O)C(C)C)n2)c(OC(C)C)cc1C1CCNCC1` [CERITINIB], the pIC50 in experiment [1] was 7.10; in experiment [2], less than 5.00.
`COc1cc(NCc2ccc(CN3CCN(CCO)CC3)o2)ccc1Nc1ncc(Cl)c(Nc2ccccc2NS(C)(=O)=O)n1`: the negative-log IC50 (pIC50) is 6.06 in experiment [1], 6.00 in experiment [3], less than 5.00 in experiment [4] and less than 5.00 in experiment [2].
As to `CCN(CC)Cc1ccc(CNc2ccc(Nc3ncc(Cl)c(Nc4ccccc4NS(C)(=O)=O)n3)c(OC)c2)o1`, the negative-log IC50 (pIC50) in experiment [1] was 6.46; in experiment [3] it was 6.24; in experiment [4], 5.45; in experiment [2], less than 5.00.
Turning to `CCN(CC)Cc1ccc(CSc2ccc(Nc3ncc(Cl)c(Nc4ccccc4NS(C)(=O)=O)n3)c(OC)c2)o1`, the negative logarithm of the IC50 (pIC50) was 6.74 in experiment [1], 6.47 in experiment [3], less than 5.00 in experiment [4] and less than 5.00 in experiment [2].
On to `CCN1CCN(Cc2ccc(CNc3ccc(Nc4ncc(Cl)c(Nc5ccccc5NS(C)(=O)=O)n4)c(OC)c3)o2)CC1`, for which the negative logarithm of the IC50 (pIC50) was 6.40 in experiment [1], 6.14 in experiment [3], less than 5.00 in experiment [4] and less than 5.00 in experiment [2].
Turning to `COc1cc(S(=O)(=O)Cc2ccco2)ccc1Nc1ncc(Cl)c(Nc2ccccc2NC(C)=O)n1`, the pIC50 in experiment [1] was 5.62; in experiment [3], 5.42; in experiment [4], less than 5.00; in experiment [2], less than 5.00.
`COc1cc(NCc2ccc(CN3CCCCC3)o2)ccc1Nc1ncc(Cl)c(Nc2ccccc2NS(C)(=O)=O)n1`: the negative-log IC50 (pIC50) in experiment [1] was 6.55; in experiment [3], 6.46; in experiment [4], 5.63; in experiment [2] it was less than 5.00.
In the same order, the values of `COc1cc(NCc2ccc(CN3CCCC3)o2)ccc1Nc1ncc(Cl)c(Nc2ccccc2NS(C)(=O)=O)n1` are 6.46, 6.38, less than 5.00 and less than 5.00.
In the same order, the values of `COc1cc(NCc2ccc(CN3CCN(C)CC3)o2)ccc1Nc1ncc(Cl)c(Nc2ccccc2NS(C)(=O)=O)n1` are 6.44, 6.32, less than 5.00 and less than 5.00.
Regarding `COc1cc(NCc2ccco2)ccc1Nc1ncc(Cl)c(Nc2ccccc2NC(C)=O)n1`, the negative-log IC50 (pIC50) in experiment [1] was 5.61; in experiment [3], 5.45; in experiment [4] it was less than 5.00; in experiment [2] it was less than 5.00.
As to `COc1cc(NCc2ccc(CN3CCOCC3)o2)ccc1Nc1ncc(Cl)c(Nc2ccccc2NS(C)(=O)=O)n1`, the negative logarithm of the IC50 (pIC50) in experiment [1] is 6.64; in experiment [3] it was 6.49; in experiment [4], less than 5.00; in experiment [2], less than 5.00.
With `COc1cc(NCc2ccc(CN3CCC(C)CC3)o2)ccc1Nc1ncc(Cl)c(Nc2ccccc2NS(C)(=O)=O)n1`, the pIC50 in experiment [1] is 6.21; in experiment [3] it was 6.28; in experiment [4], less than 5.00; in experiment [2], less than 5.00.
As for `COc1cc(NCc2ccco2)ccc1Nc1ncc(Cl)c(Nc2ccccc2NS(C)(=O)=O)n1`, the pIC50 in experiment [1] was 6.01; in experiment [3] it was 5.80; in experiment [4] it was less than 5.00; in experiment [2], less than 5.00.
Turning to `COc1cc(OCc2ccco2)ccc1Nc1ncc(Cl)c(Nc2ccccc2NS(C)(=O)=O)n1`, the pIC50 in experiment [3] is 5.80; in experiment [4] it was less than 5.00; in experiment [2], less than 5.00.
As for `COc1cc(SCc2ccc(CN3CCCCC3)o2)ccc1Nc1ncc(Cl)c(Nc2ccccc2NS(C)(=O)=O)n1`, the pIC50 is 6.46 in experiment [1], 6.30 in experiment [3], 5.41 in experiment [4] and less than 5.00 in experiment [2].
Regarding `COc1cc(SCc2ccc(CN3CCSCC3)o2)ccc1Nc1ncc(Cl)c(Nc2ccccc2NS(C)(=O)=O)n1`, the negative logarithm of the IC50 (pIC50) was 6.18 in experiment [1], 6.07 in experiment [3], less than 5.00 in experiment [4] and less than 5.00 in experiment [2].
`COc1cc(SCc2ccco2)ccc1Nc1ncc(Cl)c(Nc2ccccc2NS(C)(=O)=O)n1`: the pIC50 is 6.09 in experiment [1], 5.87 in experiment [3], less than 5.00 in experiment [4] and less than 5.00 in experiment [2].
`COc1cc(NCc2ccc(CN3CCSCC3)o2)ccc1Nc1ncc(Cl)c(Nc2ccccc2NS(C)(=O)=O)n1`: the negative-log IC50 (pIC50) in experiment [1] is 5.99; in experiment [3] it was 5.80; in experiment [4], less than 5.00; in experiment [2], less than 5.00.
As to `COc1cc(SCc2ccc(CN3CCN(CCO)CC3)o2)ccc1Nc1ncc(Cl)c(Nc2ccccc2NS(C)(=O)=O)n1`, the negative-log IC50 (pIC50) in experiment [1] was 6.29; in experiment [3] it was 6.09; in experiment [4] it was less than 5.00; in experiment [2], less than 5.00.
On to `CCN1CCN(Cc2ccc(CSc3ccc(Nc4ncc(Cl)c(Nc5ccccc5NS(C)(=O)=O)n4)c(OC)c3)o2)CC1`, for which the pIC50 was 6.55 in experiment [1], 6.17 in experiment [3], less than 5.00 in experiment [4] and less than 5.00 in experiment [2].
In the case of `COc1cc(S(=O)(=O)Cc2ccco2)ccc1Nc1ncc(Cl)c(Nc2ccccc2NS(C)(=O)=O)n1`, the negative-log IC50 (pIC50) in experiment [1] is 5.91; in experiment [3] it was 5.77; in experiment [4] it was less than 5.00; in experiment [2], less than 5.00.
On to `COc1cc(SCc2ccc(CN3CCOCC3)o2)ccc1Nc1ncc(Cl)c(Nc2ccccc2NS(C)(=O)=O)n1`, for which the pIC50 in experiment [1] was 6.82; in experiment [3] it was 6.37; in experiment [4], 6.04; in experiment [2], less than 5.00.
Regarding `COc1cc(SCc2ccc(CN3CCC(C)CC3)o2)ccc1Nc1ncc(Cl)c(Nc2ccccc2NS(C)(=O)=O)n1`, the pIC50 in experiment [1] was 6.92; in experiment [3], 6.70; in experiment [4], less than 5.00; in experiment [2] it was less than 5.00.
With `COc1cc(NCc2ccc(CN(C)C)o2)ccc1Nc1ncc(Cl)c(Nc2ccccc2NS(C)(=O)=O)n1`, the pIC50 in experiment [1] is 6.70; in experiment [3], 6.28; in experiment [4], 5.52; in experiment [2] it was less than 5.00.
Take `COc1cc(SCc2ccc(CN3CCN(C)CC3)o2)ccc1Nc1ncc(Cl)c(Nc2ccccc2NS(C)(=O)=O)n1`: the pIC50 in experiment [1] was 6.85; in experiment [3] it was 6.32; in experiment [4] it was less than 5.00; in experiment [2], less than 5.00.
